In ChEMBL document CHEMBL1201862, “PubChem BioAssay data set” (2004):
Active and inactive are the calls of the source.

Experiments:
[1] = biological target: Wee1-like protein kinase (Homo sapiens, UniProt P30291); assay: HeLa cell cycle G2/M accumulation – FACS, mechanism study for Wee1 degradation inhibitor project, late-stage follow-up, panel member Wee1 Degradation (AID 2088)
[2] = biological target: G2/mitotic-specific cyclin-B1 (Homo sapiens, UniProt P14635); assay: HeLa cell cycle G2/M accumulation – FACS, mechanism study for Wee1 degradation inhibitor project, late-stage follow-up, panel member Cyclin B Degradation (AID 2088)
[3] = biological target: E3 ubiquitin-protein ligase XIAP (Homo sapiens, UniProt P98170); assay: Counter Screen using XIAP-Bir3 for Chemical Antagonists of Bir1/2 domains of IAP-family anti-apoptotic proteins. [Related pubchem assays (depositor defined):AID1018, AID1449, AID1514, AID1638, AID1749, AID1750, AID488957, AID488963]
[4] = biological target: Alkaline phosphatase, placental type (Homo sapiens, UniProt P05187); assay: human placental alkaline phosphatase inhibition – biochemical, luminescence, confirmation (AID 1512); assay type: functional
[5] = biological target: Glyceraldehyde-3-phosphate dehydrogenase (Homo sapiens, UniProt P04406)
[6] = biological target: T1, Alkaline phosphatase, tissue-nonspecific isozyme (Homo sapiens, UniProt P05186)
T1 sequence (P05186 whole entry): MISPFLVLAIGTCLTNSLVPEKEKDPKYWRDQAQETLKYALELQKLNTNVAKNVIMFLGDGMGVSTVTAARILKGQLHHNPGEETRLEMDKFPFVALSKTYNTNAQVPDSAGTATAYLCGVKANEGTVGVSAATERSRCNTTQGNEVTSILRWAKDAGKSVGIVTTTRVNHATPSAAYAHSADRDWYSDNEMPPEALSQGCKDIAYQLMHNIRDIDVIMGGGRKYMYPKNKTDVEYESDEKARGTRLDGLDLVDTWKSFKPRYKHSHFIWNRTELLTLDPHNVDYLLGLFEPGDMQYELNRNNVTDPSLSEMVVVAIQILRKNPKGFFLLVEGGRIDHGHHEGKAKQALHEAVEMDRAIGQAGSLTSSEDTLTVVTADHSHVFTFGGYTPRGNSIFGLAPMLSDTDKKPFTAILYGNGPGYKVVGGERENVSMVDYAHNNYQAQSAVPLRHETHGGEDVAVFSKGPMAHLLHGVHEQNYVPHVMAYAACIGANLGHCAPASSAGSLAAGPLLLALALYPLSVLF

[7] = biological target: T2, Tyrosine-protein phosphatase non-receptor type 7 (Homo sapiens, UniProt P35236); assay: inhibition of hematopoietic tyrosine phosphatase HePTP – biochemical, set 2, SAR follow-up (AID 449736); assay type: functional
T2 sequence (P35236 whole entry): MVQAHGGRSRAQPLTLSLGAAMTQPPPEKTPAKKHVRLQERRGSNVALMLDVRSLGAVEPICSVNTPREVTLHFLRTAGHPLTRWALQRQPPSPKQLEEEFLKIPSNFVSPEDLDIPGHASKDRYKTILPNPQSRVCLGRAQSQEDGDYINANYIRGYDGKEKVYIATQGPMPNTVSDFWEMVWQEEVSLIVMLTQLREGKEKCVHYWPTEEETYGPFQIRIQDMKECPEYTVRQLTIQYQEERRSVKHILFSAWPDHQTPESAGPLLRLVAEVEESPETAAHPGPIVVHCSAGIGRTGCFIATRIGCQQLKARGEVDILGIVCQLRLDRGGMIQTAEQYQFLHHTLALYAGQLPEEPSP

[8] = biological target: T3, Carboxy-terminal domain RNA polymerase II polypeptide A small phosphatase 1 (Homo sapiens, UniProt Q9GZU7); assay: CTDSP1 inhibitors, concentration-response, biochemical, absorbance readout, ultra-high-throughput screen actives (AID 540297); assay type: functional
T3 sequence (Q9GZU7 whole entry): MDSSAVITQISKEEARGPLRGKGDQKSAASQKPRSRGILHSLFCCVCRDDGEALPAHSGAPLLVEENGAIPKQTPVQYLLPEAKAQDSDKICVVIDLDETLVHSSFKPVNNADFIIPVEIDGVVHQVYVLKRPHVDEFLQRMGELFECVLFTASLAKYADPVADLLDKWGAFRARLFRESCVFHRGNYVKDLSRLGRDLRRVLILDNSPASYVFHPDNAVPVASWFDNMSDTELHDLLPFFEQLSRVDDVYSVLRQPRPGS

[9] = tested on: Streptococcus; assay: GAS UMAA2166 growth inhibition – luminescence, BacTiterGlo, counter-screen for streptokinase expression inhibitor project, dose response (AID 1915); assay type: functional, organism-based;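 also: potency for reduction of bacterial viability or growth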
[10] = biological target: Polyadenylate-binding protein 1 (Homo sapiens, UniProt P11940); assay: blockers of PABP interaction with poly(A) – biochemical, fluorescence polarization, […] (AID 2014)
[11] = tested on: Streptococcus sp. 'group A'; assay: Streptococcus pyogenes SK(-)GAS viability under kanamycin – luminescence, BacTiterGlo, confirmation, counter-screen for streptokinase expression inhibitor project, dose response (AID 1900); assay type: functional, organism-based
[12] = biological target: Eukaryotic translation initiation factor 4H (Homo sapiens, UniProt Q15056); assay: eIF4H binding inhibition – biochemical, uHTS, fluorescence polarization, translation initiation inhibitor project, primary screen (AID 2012)
[13] = biological target: T4, Streptokinase A (Streptococcus pyogenes serotype M1, UniProt P10520); assay: viability-normalized secreted streptokinase activity reduction – plasminogen activation absorbance, OD405, dose response (AID 1914); assay type: functional, Streptococcus pyogenes M1 GAS;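 also: secreted streptokinase activity via plasminogen activation per viability signal from cell pellet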
T4 sequence (P10520 whole entry): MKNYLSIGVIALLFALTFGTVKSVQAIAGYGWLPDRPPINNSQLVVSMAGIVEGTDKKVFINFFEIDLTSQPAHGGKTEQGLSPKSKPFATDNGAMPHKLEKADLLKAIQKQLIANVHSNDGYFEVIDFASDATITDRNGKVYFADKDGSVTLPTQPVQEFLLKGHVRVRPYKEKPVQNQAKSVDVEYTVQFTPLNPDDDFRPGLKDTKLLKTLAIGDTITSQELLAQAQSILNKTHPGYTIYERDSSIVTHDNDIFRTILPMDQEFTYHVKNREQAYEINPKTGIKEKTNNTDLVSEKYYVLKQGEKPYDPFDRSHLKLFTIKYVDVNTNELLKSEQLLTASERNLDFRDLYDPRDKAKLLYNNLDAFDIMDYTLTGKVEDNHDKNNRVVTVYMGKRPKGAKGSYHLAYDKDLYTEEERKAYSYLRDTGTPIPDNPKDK

[14] = biological target: Peroxisome proliferator-activated receptor gamma/Nuclear receptor corepressor 2 (Homo sapiens, UniProt P37231+Q9Y618); assay type: functional
[15] = biological target: Photoreceptor-specific nuclear receptor (Homo sapiens, UniProt Q9Y5X4); assay type: functional;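 also: potency for compounds that break the NR2E3 corepressor complex and count as activators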
[16] = Fluorescence-based cell-based high throughput dose response assay for inhibitors of the interaction of nucleotide-binding oligomerization domain containing 2 (NOD2) and the receptor-interacting serine-threonine kinase 2 (RIPK2).; assay type: functional; details: Homo sapiens
[17] = viability loss in THP-1 monocytes – THP-1 cells, cytotoxicity control for Vif-APOBEC3G degradation inhibitor project, dose response (AID 1117359); assay type: functional; details: THP-1
[18] = biological target: Beta-galactosidase (Escherichia coli, UniProt Q8VNN2); assay: detection-enzyme interference by beta-gal modulators – biochemical, E. coli enzyme, set 3, artefact control for CCR6 antagonist project, dose response (AID 504712); assay type: functional
[19] = biological target: Voltage-dependent T-type calcium channel subunit alpha-1H (Homo sapiens, UniProt O95180); assay: human CACNA1H calcium influx blockade – cell-based, synthetic library set 1, calcium flux (AID 493022); assay type: functional
[20] = biological target: Melanin-concentrating hormone receptor 1 (Homo sapiens, UniProt Q99705); assay: Fluorescence-based counterscreen for antagonists of the G-protein coupled receptor 7 (GPR7): cell-based high throughput dose response assay to identify antagonists of the melanin-concentrating hormone receptor 1 (MCHR1).; assay type: functional
[21] = biological target: Troponin, cardiac muscle (Homo sapiens, UniProt P19429+P45379+P63316); assay: Fluorescence-based biochemical high throughput dose response assay for activators of the calcium sensitivity of cardiac Regulated Thin Filaments (RTF). [Related pubchem assays (depositor defined):AID493008, AID493018, AID504382, AID504383]; assay type: protein-complex assay
[22] = biological target: Phosphomannomutase 2 (Homo sapiens, UniProt O15305); assay: Counter screen SAR assay for PMM2 inhibitors via a fluorescence intensity assay. [Related pubchem assays (depositor defined):AID1545, AID1574]
[23] = biological target: T5, Mannose-6-phosphate isomerase (Homo sapiens, UniProt P34949); assay: phosphomannose isomerase inhibition – biochemical, fluorescence intensity, confirmation (AID 1535)
T5 sequence (P34949 whole entry): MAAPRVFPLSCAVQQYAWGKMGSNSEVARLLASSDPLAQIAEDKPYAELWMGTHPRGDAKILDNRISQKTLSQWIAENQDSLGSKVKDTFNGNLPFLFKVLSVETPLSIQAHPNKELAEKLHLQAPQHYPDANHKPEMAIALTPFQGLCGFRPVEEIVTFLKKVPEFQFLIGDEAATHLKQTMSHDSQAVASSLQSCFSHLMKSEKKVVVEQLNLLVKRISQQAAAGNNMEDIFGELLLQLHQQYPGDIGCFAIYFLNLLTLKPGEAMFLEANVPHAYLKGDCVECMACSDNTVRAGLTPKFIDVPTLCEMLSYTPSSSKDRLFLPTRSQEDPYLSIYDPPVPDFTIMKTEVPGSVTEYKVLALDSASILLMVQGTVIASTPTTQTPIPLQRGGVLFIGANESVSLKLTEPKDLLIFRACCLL

[24] = biological target: T2, Tyrosine-protein phosphatase non-receptor type 7; assay type: functional
[25] = biological target: Heat shock 70 kDa protein 1A (Homo sapiens, UniProt P0DMV8); assay: inhibition of Hsp70 binding activity – biochemical, fluorescence polarization, SAR follow-up (AID 1072)
[26] = biological target: T6, Dual specificity protein phosphatase 6 (Rattus norvegicus, UniProt Q64346)
T6 sequence (Q64346 whole entry): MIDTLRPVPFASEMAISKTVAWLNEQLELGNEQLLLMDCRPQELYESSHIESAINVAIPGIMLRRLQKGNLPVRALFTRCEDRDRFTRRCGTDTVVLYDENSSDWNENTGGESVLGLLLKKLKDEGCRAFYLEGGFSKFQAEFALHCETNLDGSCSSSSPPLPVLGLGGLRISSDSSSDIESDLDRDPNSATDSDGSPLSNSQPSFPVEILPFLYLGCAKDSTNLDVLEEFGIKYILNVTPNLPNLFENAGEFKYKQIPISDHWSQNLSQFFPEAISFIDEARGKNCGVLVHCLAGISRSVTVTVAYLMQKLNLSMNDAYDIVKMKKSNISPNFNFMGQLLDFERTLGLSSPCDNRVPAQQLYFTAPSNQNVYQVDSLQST

[27] = biological target: Heat shock cognate 71 kDa protein (Homo sapiens, UniProt P11142); assay: In Vitro Hsc70 Dose Response Fluorescence Polarization Assay. [Related pubchem assays: 1072 ]
[28] = biological target: T6, Dual specificity protein phosphatase 6; assay type: functional
[29] = biological target: Trypsin (Sus scrofa, UniProt P00761); assay: trypsin protease activity blockade – biochemical, quenched peptide fluorescence, cherry-pick, selectivity assay for Rce1 protease inhibitor project, dose response (AID 488789)

Sequence of Wee1-like protein kinase (P30291 whole entry): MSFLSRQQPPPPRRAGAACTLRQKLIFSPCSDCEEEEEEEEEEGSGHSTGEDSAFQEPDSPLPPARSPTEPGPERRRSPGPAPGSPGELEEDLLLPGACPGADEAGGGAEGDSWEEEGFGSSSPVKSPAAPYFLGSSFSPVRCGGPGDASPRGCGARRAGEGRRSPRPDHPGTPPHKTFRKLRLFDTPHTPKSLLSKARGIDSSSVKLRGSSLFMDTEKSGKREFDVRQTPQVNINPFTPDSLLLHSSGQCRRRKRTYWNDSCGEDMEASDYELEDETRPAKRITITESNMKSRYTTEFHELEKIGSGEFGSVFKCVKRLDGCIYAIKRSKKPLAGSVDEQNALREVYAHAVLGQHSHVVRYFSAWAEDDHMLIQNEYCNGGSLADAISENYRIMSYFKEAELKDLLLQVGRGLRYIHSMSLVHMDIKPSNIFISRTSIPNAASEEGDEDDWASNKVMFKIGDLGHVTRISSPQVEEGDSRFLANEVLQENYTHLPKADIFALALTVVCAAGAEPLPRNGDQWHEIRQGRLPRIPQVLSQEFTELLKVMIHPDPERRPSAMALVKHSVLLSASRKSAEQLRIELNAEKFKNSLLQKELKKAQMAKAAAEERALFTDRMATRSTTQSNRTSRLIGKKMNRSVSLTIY
Sequence of Voltage-dependent T-type calcium channel subunit alpha-1H (O95180 whole entry): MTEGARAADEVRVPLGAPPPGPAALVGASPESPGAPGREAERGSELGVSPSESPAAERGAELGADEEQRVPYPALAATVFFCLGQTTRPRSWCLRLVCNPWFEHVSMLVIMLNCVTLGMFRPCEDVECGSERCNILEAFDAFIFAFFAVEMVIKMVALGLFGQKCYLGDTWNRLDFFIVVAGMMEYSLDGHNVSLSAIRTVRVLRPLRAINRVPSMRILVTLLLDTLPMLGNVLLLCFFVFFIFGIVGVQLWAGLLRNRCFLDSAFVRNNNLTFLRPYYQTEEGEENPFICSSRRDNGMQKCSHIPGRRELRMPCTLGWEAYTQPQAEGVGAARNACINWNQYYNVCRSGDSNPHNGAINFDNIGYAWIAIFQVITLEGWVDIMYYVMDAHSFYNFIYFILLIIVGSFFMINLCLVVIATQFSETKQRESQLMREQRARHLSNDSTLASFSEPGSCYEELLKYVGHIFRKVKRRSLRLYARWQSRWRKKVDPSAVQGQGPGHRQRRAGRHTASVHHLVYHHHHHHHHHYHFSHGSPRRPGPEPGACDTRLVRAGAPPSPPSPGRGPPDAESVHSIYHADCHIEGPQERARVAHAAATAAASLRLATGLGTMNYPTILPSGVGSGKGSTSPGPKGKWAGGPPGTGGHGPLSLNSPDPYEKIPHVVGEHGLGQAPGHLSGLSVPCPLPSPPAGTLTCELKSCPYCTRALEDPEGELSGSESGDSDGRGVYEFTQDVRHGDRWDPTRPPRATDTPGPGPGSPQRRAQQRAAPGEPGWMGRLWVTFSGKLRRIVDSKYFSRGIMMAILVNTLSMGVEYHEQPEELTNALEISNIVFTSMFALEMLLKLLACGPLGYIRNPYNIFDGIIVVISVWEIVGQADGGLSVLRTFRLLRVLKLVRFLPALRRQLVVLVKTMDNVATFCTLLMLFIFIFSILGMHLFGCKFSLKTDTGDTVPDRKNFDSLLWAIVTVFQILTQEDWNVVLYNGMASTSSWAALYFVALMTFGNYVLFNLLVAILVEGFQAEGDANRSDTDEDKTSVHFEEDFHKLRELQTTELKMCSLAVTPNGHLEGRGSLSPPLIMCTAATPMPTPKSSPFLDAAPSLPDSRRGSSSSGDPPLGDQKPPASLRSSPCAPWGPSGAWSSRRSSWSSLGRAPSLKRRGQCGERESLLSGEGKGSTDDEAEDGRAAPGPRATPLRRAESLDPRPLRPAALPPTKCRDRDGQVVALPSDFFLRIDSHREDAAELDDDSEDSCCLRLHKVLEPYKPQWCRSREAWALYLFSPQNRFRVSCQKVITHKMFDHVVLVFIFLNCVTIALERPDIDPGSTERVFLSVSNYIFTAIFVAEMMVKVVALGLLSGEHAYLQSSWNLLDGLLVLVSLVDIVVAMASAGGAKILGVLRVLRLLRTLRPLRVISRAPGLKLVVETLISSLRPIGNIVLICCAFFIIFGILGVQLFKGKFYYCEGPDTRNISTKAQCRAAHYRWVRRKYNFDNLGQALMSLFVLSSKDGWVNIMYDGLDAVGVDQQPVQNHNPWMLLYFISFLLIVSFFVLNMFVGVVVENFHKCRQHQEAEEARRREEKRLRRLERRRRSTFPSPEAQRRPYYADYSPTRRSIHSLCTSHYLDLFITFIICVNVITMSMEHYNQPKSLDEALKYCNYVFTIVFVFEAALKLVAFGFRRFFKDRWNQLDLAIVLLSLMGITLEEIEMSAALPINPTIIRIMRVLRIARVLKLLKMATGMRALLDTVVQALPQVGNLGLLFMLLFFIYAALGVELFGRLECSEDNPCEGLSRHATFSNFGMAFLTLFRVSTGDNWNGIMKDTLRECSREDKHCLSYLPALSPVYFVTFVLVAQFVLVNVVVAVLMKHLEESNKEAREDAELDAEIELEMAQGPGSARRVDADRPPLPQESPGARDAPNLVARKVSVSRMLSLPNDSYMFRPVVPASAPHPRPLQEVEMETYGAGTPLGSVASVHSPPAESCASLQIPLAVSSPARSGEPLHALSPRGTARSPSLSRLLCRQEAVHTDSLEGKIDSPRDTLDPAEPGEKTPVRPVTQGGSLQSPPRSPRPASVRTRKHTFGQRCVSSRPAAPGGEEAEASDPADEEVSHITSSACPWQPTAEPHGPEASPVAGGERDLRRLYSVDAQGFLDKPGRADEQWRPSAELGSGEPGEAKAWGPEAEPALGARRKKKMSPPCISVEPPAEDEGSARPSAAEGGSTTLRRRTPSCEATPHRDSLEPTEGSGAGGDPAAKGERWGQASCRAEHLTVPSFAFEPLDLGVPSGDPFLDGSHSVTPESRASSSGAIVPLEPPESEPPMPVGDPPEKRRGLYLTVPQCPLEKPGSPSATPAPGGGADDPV
Sequence of G2/mitotic-specific cyclin-B1 (P14635 whole entry): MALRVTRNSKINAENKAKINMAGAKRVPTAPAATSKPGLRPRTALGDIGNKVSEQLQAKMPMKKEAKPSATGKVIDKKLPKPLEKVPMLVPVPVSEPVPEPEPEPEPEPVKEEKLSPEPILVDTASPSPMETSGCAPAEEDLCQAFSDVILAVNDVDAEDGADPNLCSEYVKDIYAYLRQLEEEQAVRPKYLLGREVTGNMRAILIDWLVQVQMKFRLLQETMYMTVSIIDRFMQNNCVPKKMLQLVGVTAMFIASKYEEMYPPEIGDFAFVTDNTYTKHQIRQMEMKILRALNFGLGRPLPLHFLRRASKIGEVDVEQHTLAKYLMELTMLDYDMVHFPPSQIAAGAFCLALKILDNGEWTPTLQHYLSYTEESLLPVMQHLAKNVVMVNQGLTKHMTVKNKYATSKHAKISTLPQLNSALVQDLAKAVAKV
Sequence of Glyceraldehyde-3-phosphate dehydrogenase (P04406 whole entry): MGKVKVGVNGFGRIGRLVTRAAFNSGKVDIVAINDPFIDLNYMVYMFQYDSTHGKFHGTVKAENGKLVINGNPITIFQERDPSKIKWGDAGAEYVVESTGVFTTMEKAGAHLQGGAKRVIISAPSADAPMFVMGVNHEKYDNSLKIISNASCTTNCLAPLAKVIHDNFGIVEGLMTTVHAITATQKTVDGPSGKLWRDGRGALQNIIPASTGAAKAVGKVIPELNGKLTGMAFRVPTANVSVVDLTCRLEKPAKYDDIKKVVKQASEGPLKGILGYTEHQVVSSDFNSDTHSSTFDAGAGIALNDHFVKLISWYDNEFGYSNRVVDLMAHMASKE
Sequence of Polyadenylate-binding protein 1 (P11940 whole entry): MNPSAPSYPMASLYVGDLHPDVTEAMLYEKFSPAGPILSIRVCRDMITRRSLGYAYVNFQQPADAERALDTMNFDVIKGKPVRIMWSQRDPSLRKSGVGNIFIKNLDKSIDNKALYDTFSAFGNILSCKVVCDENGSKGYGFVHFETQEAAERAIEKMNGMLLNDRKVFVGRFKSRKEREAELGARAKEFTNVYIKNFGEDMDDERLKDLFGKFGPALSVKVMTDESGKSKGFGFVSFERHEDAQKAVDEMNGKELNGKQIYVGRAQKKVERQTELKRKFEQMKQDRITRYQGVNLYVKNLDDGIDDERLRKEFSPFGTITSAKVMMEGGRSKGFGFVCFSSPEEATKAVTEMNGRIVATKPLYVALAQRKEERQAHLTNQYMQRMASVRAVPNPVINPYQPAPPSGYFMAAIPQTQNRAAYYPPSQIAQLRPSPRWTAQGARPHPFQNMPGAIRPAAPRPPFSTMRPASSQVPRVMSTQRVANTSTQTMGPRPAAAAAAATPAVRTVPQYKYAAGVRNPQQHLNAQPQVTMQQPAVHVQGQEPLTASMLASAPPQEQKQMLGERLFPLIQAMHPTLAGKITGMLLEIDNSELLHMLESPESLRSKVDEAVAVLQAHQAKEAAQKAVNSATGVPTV
Sequence of Heat shock 70 kDa protein 1A (P0DMV8 whole entry): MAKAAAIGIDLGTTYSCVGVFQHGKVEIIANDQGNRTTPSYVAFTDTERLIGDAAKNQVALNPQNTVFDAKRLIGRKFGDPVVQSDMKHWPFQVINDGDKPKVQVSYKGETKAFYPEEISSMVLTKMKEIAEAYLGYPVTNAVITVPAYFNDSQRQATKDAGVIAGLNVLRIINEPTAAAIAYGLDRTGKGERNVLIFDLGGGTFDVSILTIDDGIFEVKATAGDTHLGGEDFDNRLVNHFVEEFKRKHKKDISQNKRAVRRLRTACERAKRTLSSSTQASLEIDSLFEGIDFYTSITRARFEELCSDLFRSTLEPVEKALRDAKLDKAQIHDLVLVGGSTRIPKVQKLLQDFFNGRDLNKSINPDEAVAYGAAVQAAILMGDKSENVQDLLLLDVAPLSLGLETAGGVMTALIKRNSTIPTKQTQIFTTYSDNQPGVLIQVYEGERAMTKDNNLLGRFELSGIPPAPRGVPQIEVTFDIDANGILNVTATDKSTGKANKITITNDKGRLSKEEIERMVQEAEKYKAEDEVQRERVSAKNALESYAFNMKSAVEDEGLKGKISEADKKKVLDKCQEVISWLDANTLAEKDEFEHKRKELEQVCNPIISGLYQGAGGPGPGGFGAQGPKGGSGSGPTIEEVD

With `CSc1cccc(NC(=O)CCCOc2cc(=O)n(C)c3ccccc23)c1` the EC50 [1] was > 49.7 µM (inactive) and the EC50 [2] was > 49.7 µM (inactive).

In the case of `Cc1ccc(C(=O)COc2ccccc2C(=O)Nc2ccccc2)cc1`, the IC50 [3] is reported as > 20 µM (inactive).

For `CC(C)(C)NC(=O)c1cc(-c2ccc(Cl)cc2Cl)n[nH]1`, the IC50 [4] was > 100 µM (inactive) and the IC50 [5] was > 100 µM (not active).

For `Cc1ccc(Cl)cc1-n1ncc2c(NNC(=O)c3ccco3)ncnc21`, the EC50 [6] was 63.2 µM (not active).

With `Cn1c(=O)c2c(nc(N/N=C/c3ccc(OC(=O)c4ccco4)cc3)n2Cc2ccccc2)n(C)c1=O` the EC50 [6] was > 100 µM (not active).

For `NS(=O)(=O)c1ccc(NC(S)=NC2CCCC2)cc1`, the IC50 [7] was 28 µM (active).

For `COc1ccc(C(CC(=O)N2CCCC(C)C2)c2c(OC)cc(OC)c3c(-c4ccccc4)cc(=O)oc23)cc1` (stereo not given), the IC50 [8] was 7.99 µM (active), the EC50 [9] was > 150 µM (not active) and the IC50 [10] was 28.3 µM (active). For the same compound, the EC50 [11] was 14.5 µM (active), the IC50 [12] was 8.23 µM (active) and the EC50 [13] was 41.2 µM (active).

In the case of `CCN(CC)CCN1C(=O)C(O)=C(C(=O)c2cc3ccccc3o2)C1c1cccnc1` (stereo not given), the IC50 [14] is reported as 2.95 µM (active) and the IC50 [15] is reported as > 39.8 µM (not active).

In the case of `CCOC(=O)c1cc([N+](=O)[O-])cc([N+](=O)[O-])c1Sc1[nH]cnc2ncnc1-2`, the IC50 [16] is reported as 3.29 µM (active), the CC50 [17] is reported as 1.6 µM (active) and the IC50 [18] is reported as > 66.6 µM (inactive).

In the case of `O=C(COc1ccc(F)cc1Cl)Nc1nnc(-c2ccc3ccccc3c2)o1`, the EC50 [19] is reported as 3.6 µM (active).

For `Cc1ccc(-c2nnc(NC(=O)COc3ccc(F)cc3)o2)cc1C`, the EC50 [19] was 10 µM (active).

In the case of `O=C(c1ccc(Cl)c(S(=O)(=O)N2CCCCCC2)c1)N1CCCCC1`, the IC50 [20] is reported as 32.7 µM (not active).

In the case of `O=C(Nc1ccc2c(c1)OCCO2)c1cccc(Cl)c1Cl`, the EC50 [21] is reported as > 71.4 µM (inactive).

With `Sc1n[nH]c(-c2ccccc2Cl)n1` the IC50 [22] was > 100 µM (inactive) and the IC50 [23] was > 50 µM (inactive).

With `Cc1cc(O)nc(-n2nc(C)cc2NC(=O)c2ccccc2)n1` the EC50 [1] was > 16.6 µM (active) and the EC50 [2] was > 49.7 µM (inactive).

With `CCOC(=O)/C(=C\c1c[nH]c2ccccc12)NC(C)=O` the EC50 [21] was > 71.4 µM (inactive).

In the case of `O=C(O)C(O)c1ccccc1` (stereo not given) [MANDELIC ACID], the IC50 [24] is reported as > 100 µM (not active), the IC50 [25] is reported as > 100 µM (not active) and the IC50 [26] is reported as > 100 µM (inactive). For the same compound, the IC50 [27] was > 100 µM (not active), the IC50 [5] was > 100 µM (not active) and the IC50 [28] was > 100 µM (inactive).

For `NS(=O)(=O)c1ccc(NC(=O)/C=C/c2cn(-c3ccccc3)nc2-c2cccc(Cl)c2)cc1`, the AC50 [29] was 81.4 µM (active).
